# Values quoted from earlier work in patent US20150099002A1, “MEANS AND METHODS FOR ENHANCING WEIGHT GAIN IN POULTRY” (Nutrinia Ltd., priority 2007, published 2015).
# Test system: Cobb male chicks
# Details: through drinking water or feed, high amounts, at least 21 days
substance,measurement,value
insulin: insulin provided to chicks through drinking water or feed in WO 2005/115473,weight gain compared to same feed without insulin,higher weight gain
